# Measured values from patent US20230219912A1, “HALOGENATED BENZOTHIADIAZINES FOR THE TREATMENT OF CANCER” (BOARD OF REGENTS OF THE UNIVERSITY OF NEBRASKA, priority 2020, published 2023).
# Where “and” joins values, the source holds several entries; their conditions need not be identical. Equal entries are not always repeated. Entries after “also recorded” stand apart in the source; their conditions may differ.
# How the values were obtained:
# [1] = tested on: MDA-MB-468 triple negative breast cancer cells; assay: MTS cytotoxicity assay in MDA-MB-468 triple negative breast cancer cells; format: cell-based; conditions: 10, 50 and 100 μM for 24, 48 and 72 hours, MTS
# Method: The assay was performed as follows.
# Derivatives were dosed at 10, 50 and 100 μM for 24, 48 and 72 hours and cell viability measured by MTS assay (FIG. 5).
# [2] = tested on: VEGF-induced proliferation of HUVEC cells; assay: VEGF-induced HUVEC proliferation, MTT assay; format: cell-based, human; conditions: Homo sapiens, HUVEC, 48 h, 20 μM compound, VEGF 10 ng/mL, HUVEC, 48 h; relative to VEGF treated cells; mean ± SEM n = 3; read-out: % Inhibition of Proliferation
# Summary of the method: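 HUVECs starved 24 h in 0.1% BSA/0.1% FBS basal medium, then treated 48 h with VEGF (10 ng/mL) alone or with compounds at 20 μM (DMSO <1%). Proliferation by MTT (2 h, 37° C), formazan dissolved in acidified isopropanol, absorbance at 570 nm.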
# DYRK1A = DYRK1A (Homo sapiens, UniProt Q13627); conditions: 100 μM; cited from earlier work
# breast cancer = conditions: 200-300 mg per day, cited from earlier work
# IRAK1 = IRAK1 (Homo sapiens, UniProt P51617); conditions: 100 μM; cited from earlier work
# IRAK1, sequence (P51617 whole entry): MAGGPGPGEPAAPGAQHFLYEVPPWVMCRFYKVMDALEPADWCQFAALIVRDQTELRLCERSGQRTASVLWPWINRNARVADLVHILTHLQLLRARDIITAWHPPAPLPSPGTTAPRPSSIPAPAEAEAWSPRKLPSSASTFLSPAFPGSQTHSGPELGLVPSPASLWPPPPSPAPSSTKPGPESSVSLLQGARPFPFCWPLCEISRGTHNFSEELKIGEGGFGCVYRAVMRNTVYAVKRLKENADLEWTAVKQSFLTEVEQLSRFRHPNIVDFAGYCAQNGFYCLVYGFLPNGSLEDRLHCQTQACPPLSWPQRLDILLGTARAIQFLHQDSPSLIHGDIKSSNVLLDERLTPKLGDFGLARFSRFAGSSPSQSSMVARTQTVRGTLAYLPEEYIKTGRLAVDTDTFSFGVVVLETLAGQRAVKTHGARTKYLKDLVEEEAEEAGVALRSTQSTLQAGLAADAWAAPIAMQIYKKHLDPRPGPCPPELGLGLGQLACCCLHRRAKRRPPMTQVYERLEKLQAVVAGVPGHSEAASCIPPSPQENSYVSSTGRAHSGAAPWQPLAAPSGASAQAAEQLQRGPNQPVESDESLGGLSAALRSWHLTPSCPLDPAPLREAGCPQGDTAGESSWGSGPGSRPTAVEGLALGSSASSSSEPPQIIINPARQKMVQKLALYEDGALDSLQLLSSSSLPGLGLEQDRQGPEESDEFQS
# [3] = molecular target: T1, Mitochondrial respiratory complex II (Rattus norvegicus, UniProt P21913+Q641Z9+Q6PCT8+Q920L2); assay: Mitochondrial respiratory complex II inhibition assay; format: biochemical
# T1 construct: measured spectrophotometrically using isolated rat heart mitochondria; from tissue; host or cells: rat heart mitochondria / sub-mitochondrial particles
# T1 sequence (Q920L2 35-656): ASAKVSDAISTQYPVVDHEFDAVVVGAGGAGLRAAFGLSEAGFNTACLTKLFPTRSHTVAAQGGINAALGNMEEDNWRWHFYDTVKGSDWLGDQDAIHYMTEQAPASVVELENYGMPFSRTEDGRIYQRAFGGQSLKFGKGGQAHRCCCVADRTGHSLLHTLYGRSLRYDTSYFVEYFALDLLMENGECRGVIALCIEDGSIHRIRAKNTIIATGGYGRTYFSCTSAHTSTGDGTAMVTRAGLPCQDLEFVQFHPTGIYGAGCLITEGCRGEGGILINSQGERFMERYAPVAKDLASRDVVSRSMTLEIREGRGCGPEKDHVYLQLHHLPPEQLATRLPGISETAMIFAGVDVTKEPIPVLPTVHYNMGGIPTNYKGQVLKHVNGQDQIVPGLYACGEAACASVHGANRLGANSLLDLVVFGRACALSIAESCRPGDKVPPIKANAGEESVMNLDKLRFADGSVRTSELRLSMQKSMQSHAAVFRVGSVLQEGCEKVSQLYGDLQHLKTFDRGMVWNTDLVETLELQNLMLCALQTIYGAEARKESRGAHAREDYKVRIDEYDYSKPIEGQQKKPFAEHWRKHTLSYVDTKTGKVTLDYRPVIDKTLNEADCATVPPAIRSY
# T1 sequence (P21913 31-282): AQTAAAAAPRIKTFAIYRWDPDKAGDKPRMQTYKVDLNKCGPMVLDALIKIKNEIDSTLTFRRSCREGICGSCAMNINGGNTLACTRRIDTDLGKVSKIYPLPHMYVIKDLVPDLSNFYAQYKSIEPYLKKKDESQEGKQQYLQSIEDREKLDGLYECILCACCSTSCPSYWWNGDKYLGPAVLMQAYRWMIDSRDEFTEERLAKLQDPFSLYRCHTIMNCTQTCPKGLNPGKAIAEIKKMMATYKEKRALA
# T1 sequence (Q641Z9 1-169): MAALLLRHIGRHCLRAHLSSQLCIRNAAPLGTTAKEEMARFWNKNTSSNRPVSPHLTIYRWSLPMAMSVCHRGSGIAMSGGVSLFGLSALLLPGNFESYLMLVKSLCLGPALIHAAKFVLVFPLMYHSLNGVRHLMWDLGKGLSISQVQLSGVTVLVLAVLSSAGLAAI
# T1 sequence (Q6PCT8 57-159): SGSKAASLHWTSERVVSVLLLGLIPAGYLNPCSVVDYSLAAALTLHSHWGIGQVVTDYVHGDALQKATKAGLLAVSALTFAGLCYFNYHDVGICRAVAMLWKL
# Summary of the method: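 Rat heart mitochondria or sub-mitochondrial particles in phosphate buffer pH 7.4 with 40 μM DCPIP, 1 mM KCN, 10 μM rotenone and 50 μM co-enzyme Q2.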
# MDA-MB-468 TNBC cells = conditions: cited from earlier work
# [4] = tested on: hormone-dependent mammary carcinomas; conditions: 300 mg/kg, rats; cited from earlier work
# [5] = tested on: MCF-7 breast cancer cells; conditions: cited from earlier work
# [6] = molecular target: T2, Mitochondrial respiratory complex II (CII) (Rattus norvegicus, UniProt P21913+Q641Z9+Q6PCT8+Q920L2); conditions: rat heart mitochondria, literature; cited from earlier work
# T2 construct: host or cells: rat heart mitochondria
# T2 sequence (Q920L2 35-656): as the sequence (Q920L2 35-656) above
# T2 sequence (P21913 31-282): as the sequence (P21913 31-282) above
# T2 sequence (Q641Z9 30-169 limits assumed): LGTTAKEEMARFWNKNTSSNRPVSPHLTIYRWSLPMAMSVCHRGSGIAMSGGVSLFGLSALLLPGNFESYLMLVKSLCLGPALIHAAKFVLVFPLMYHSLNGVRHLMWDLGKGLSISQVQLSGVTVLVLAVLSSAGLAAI
# T2 sequence (Q6PCT8 57-159): as the sequence (Q6PCT8 57-159) above
# [7] = tested on: phosphorylated vascular endothelial growth factor receptor-2 (VEGFR2); assay: Western blot of pVEGFR2 in VEGF-treated HUVEC cells; format: cell-based, human; conditions: 20 μM, VEGF 10 ng/mL, 5 min
# Method: Cells were treated with test compounds (20 μM) along with VEGF (10 ng/mL) for 5 min. The DMSO was used as a negative control, whereas DMSO+VEGF was used as a positive control. Cells were lysed using RIPA buffer (10 mmol/L Tris-HCl, 1 mmol/L EDTA, 0.5 mmol/L EGTA, 1% Triton X-100, 0.1% sodium deoxycholate, 0.1% SDS and 140 mmol/L NaCl), supplemented with protease and phosphatase inhibitors (Halt Protease and Phosphatase Inhibitor). Cell lysates were centrifuged, and the supernatants were mixed with appropriate amount of 5×SDS loading buffer. Proteins were resolved on polyacrylamide gel and transferred onto nitrocellulose/PVDF membrane, blocked for 1 hour with 10% milk block prepared in 0.1% Tween 20 in 1×PBS (PBST), and treated with pVEGFR2 primary antibody at 4° C. overnight. The membrane was washed thrice with PBST, 5 minutes each, and treated with secondary antibody for 1 hour. The membrane was further washed three times, 5 minutes each, with PBST and developed using chemiluminescence, and the bands were analyzed using densitometry.
smiles,measurement,setting,value
"CC1=Nc2ccc(Cl)cc2S(=O)(=O)N1 [Diazoxide, 7-chloro-3-methyl-2H-1,2,4-benzothiadiazine 1,1-dioxide, reference compound]",effect on MDA-MB 468 TNBC cell viability,[1],no effect to reduce cell viability; also recorded: little activity to reduce TNBC cell viability
same,effect on MDA-MB 468 TNBC cell viability,[1]; listed as 9,no effect on cell viability
same,inhibition at 20 µM,[2],15 ± 20%
same,inhibition of DYRK1A,DYRK1A,7%
same,response rate,breast cancer; nine patients,33%
same,duration of stable disease,breast cancer,4-8 months
same,inhibition of IRAK1,IRAK1,9%
same,inhibition of CII,"[3]; 100 μM, relative to DMSO control",no CII inhibition activity
same,inhibition at 100 µM,"[3]; 100 μM, relative to DMSO control, read-out: inhibition of CII",9%
same,IC50,"[3]; isolated rat heart mitochondria, mean ±SD of n = 4, read-out: CII IC50",1240 µM and > 1000 µM
same,IC50,MDA-MB-468 TNBC cells,0.87 µM
same,adverse effect,[4],mild reversible diabetes
same,inhibition of tumor growth,[4],90%
same,IC50,[5],130 µM
same,IC50,[6],32 µM
same,attenuation of pVEGFR2 expression,[7],good activity to suppress pVEGFR2
